Assay: in vitro
Details: human, hela cells

Row | SMILES | viability at 28.5 h, 10 µM
1 | CN(C)C(=O)Oc1ccc2[nH]c3c(c2c1)CCNC31CCN(CCOc2ccccc2)C1 (stereo not shown) [CBK107679] | 95.1%

Same assay, conditions: human, hela cells, % viability

Row | SMILES | viability at 28.5 h, 10 µM
2 | Cc1ccc(-c2ccc(N3CCCC(C(=O)O)C3)nn2)cc1C (stereo not shown) [CBK300513] | 95.8%
3 | CC(Oc1ccccc1)C(=O)N1CCN(CCO)CC1 (stereo not shown) [CBK267428] | 98.6%
4 | O=C(O)c1ccc(CNC(=S)Nc2ccc([N+](=O)[O-])cc2)cc1 [CBK267037] | 92.9%
5 | O=C1CC(N(O)c2ccccc2)C(=O)N1c1ccc(F)cc1 (stereo not shown) [CBK288419] | 104%
6 | O=C(NCc1cccc(C(F)(F)F)c1)N1CCCC(CO)C1 (stereo not shown) [CBK156033] | 89.5%
7 | O=S(=O)(Nc1nnc(C(F)(F)F)s1)c1ccc(-c2ccccn2)s1 [CBK062016] | 91.9%
8 | COCCNC(=O)c1cc(-c2cc(C)oc2C)nc2c1cnn2C(C)C [CBK305052] | 101%
9 | CCN1C(=O)C2(CC(=O)N(CCCN(C)C(=O)c3ccco3)C2=O)c2cc(C)ccc21 (stereo not shown) [CBK075141] | 94.3%
10 | COc1ccccc1NC(=S)NCCc1ccc(S(N)(=O)=O)cc1 [CBK266201] | 95.1%
11 | S=C1NCCN1c1nnc(-c2cccs2)[nH]1 [CBK007096] | 97.3%
12 | O=C(O)Cn1c(=O)n(CC(=O)O)c2ccccc21 [CBK263550] | 83%
13 | COc1ccc(OC)c(NC(=O)C(C)Oc2ccccc2OC)c1 (stereo not shown) [CBK269766] | 85.3%
14 | OC1CCN(Cc2c([C@H]3CCCO3)[nH]c3ncccc23)CC1 [CBK286301] | 110%
15 | CCc1nn(Cc2ccncc2)c(=O)c2cc3sc(C)cc3n12 [CBK284140] | 85.7%
16 | O=C(O)C1C2CCC(CC2)C1C(=O)N1CCN(Cc2ccccc2Cl)CC1 (stereo not shown) [CBK270336] | 100%
17 | CC(NC(=O)N1CCCN(Cc2ccccn2)CC1)c1cnn(C)c1 (stereo not shown) [CBK307537] | 102%
18 | Cn1c2ccccc2c2nnc(SCCc3ccccc3)nc21 [CBK267986] | 109%
19 | COc1ccc(C(=O)N2CCC3(CC2)NC(=O)c2cc(C)ccc2O3)cc1C [CBK166277] | 89%
20 | CC1=NNC(=O)C1CCC(=O)N/N=C/C(Br)=C/c1ccccc1 (stereo not shown) [CBK262929] | 100%
21 | O=C(Cn1c(=O)oc2ccccc21)Nc1ccc(S(=O)(=O)Nc2nccs2)cc1 [CBK267686] | 80.2%
22 | CN(C)CCCC(O)(c1ccccc1)c1ccccc1 [CBK012599] | 109%

Row | SMILES | viability at 28.5 h, 10 µM
23 | CC(C)Oc1ccc(C(=O)C2=C(O)C(=O)N(Cc3cccnc3)C2c2cccc([N+](=O)[O-])c2)cc1 (stereo not shown) [CBK264936] | 89.2%
24 | O=C(c1nn2c(C(F)(F)F)cc(-c3ccccc3)nc2c1Cl)N1CCOCC1 [CBK051498] | 90.4%
25 | Nc1ncc(-c2ccncc2)nc1NCCCN1CCOCC1 [CBK063631] | 98.9%
26 | CC(C)C[C@H](NC(=O)OC(C)(C)C)C(=O)NC[C@H]1CC[C@H](C(=O)O)CC1 [CBK286750] | 85.9%
27 | CC(C)C(=O)Nc1cc2cccnc2nc1-c1ccccc1 [CBK073647] | 94.7%
28 | O=C(CN1CCC(c2ccccc2F)CC1)N1CCOCC1 [CBK283548] | 89.3%
29 | CCOC(=O)C1CCN(S(=O)(=O)c2ccc(C(C)(C)C)cc2)CC1 [CBK051240] | 83.5%
30 | COC(=O)c1c(C)[nH]c(C(=O)N2CCCC2c2cccnc2)c1C (stereo not shown) [CBK296639] | 98.8%
31 | O=C(O)CCCSCC(=O)Nc1ccccc1 [CBK276905] | 88.4%
32 | Cc1cc(NC(=O)CN2CCC(CSc3ccccc3)C2)no1 (stereo not shown) [CBK306136] | 92.4%
33 | Clc1ccc(-c2cn(-c3cnc4ccccc4c3)nn2)cc1 [CBK113044] | 94.8%
34 | O=S(=O)(Nc1ccc(C(O)(C(F)(F)F)C(F)(F)F)cc1)c1ccccc1Br [CBK062101] | 96.3%
35 | N#CC1CCCc2c1[nH]c1ccccc21 (stereo not shown) [CBK098397] | 74.9%
36 | Cc1cc(NC(=O)CNC(=O)c2ccccc2)no1 [CBK073427] | 99.7%
37 | O=C(NCCn1nc(-c2ccco2)ccc1=O)C1CCCC1 [CBK283707] | 92%
38 | CSCCC(NC=C1C(=O)CC(C)(C)CC1=O)C(=O)O (stereo not shown) [CBK261311] | 92.9%
39 | O=C(Cn1ncc2cccn2c1=O)OC1CCCCC1 [CBK283667] | 91.8%
40 | Cc1ccnc2nc(C(=O)OC(C)C(=O)N3CCCC3)nn12 (stereo not shown) [CBK306089] | 88.9%
41 | c1cc(CCCOc2cncc(N3CCCC3)n2)ccn1 [CBK115760] | 85.3%
42 | O=C(C1CC=CCC1)N1CCC(c2[nH]ncc2-c2ccncc2)CC1 (stereo not shown) [CBK284212] | 84%
43 | O=[N+]([O-])c1ccccc1CN1CCN(Cc2cccc(Oc3ccccc3)c2)CC1 [CBK264307] | 91.3%

Row | SMILES | viability at 28.5 h, 10 µM
44 | COc1ccc(CNC(=O)c2sc3nc4c(c(C(F)(F)F)c3c2N)CCC4)cc1OC [CBK074568] | 85.7%
45 | O=C(O)C1=NN(c2ccccc2)C(=O)CC1 [CBK270176] | 84.4%
46 | Cc1n[nH]c2nc(-c3cc(Br)ccc3O)cc(C(=O)O)c12 [CBK286834] | 105%
47 | CC1CC(=O)c2cnc(Nc3ccccc3)nc2C1 (stereo not shown) [CBK287884] | 92.4%
48 | COc1cc(C(=O)N/C(=C\c2ccc(O)cc2)C(=O)O)cc(OC)c1OC [CBK262607] | 86.2%
49 | O=S(=O)(c1ccc(C(F)(F)F)cc1Cl)N1CCN(Cc2c[nH]nc2-c2cccs2)CC1 [CBK062864] | 108%
50 | CC1CCN(C(=O)C2CCCCC2C(=O)O)CC1 (stereo not shown) [CBK028392] | 107%
51 | CCCS(=O)(=O)NC[C@H]1C[C@@H]2CCN1C[C@@H]2c1cc(-c2ccccc2)nn1C [CBK289095] | 93.8%
52 | O=C1NCCCC12CCN(Cc1cccc3cccnc13)CC2 [CBK284826] | 92.3%
53 | COc1ccc(C(=O)N2CCC3(CCCN(C(=O)c4cscn4)C3)C2)cc1OC (stereo not shown) [CBK131659] | 92%
54 | O=C(c1cc(F)c(F)cc1F)N1CCC2(CCCN(C(=O)c3cccc4[nH]ccc34)C2)C1 (stereo not shown) [CBK131544] | 97.3%
55 | CCc1nc2ccc(C(=O)Nc3ccc4c(c3)CCN4C(C)=O)cn2c1N(C=O)CC [CBK145944] | 102%
56 | O=C(O)C1CC1C(=O)N1CCC2(CC1)OCCc1c2[nH]c2ccccc12 (stereo not shown) [CBK047167] | 89.2%
57 | CCN(CC)CC(C)C(O)(c1ccccc1)c1ccccc1 (stereo not shown) [CBK012065C] | 95%
58 | c1ccc(N2CCC(CNCc3c[nH]nc3-c3cccnc3)C2)cc1 (stereo not shown) [CBK305738] | 88.7%
59 | O=C(Nc1ccc(Cc2ccncc2)cc1)c1ccc(CSc2ccc(Cl)cc2)cc1 [CBK262526] | 86.9%
60 | c1coc(-c2nc3cnccn3c2NC2CCCCC2)c1 [CBK283498] | 93.6%
61 | Nc1ccc(-c2cc(N)n(-c3ccc(Oc4ccccc4)c(S(=O)(=O)O)c3)n2)cc1 [CBK261563] | 96.1%
62 | COc1cccc(C(=O)Nc2nc3ccccc3n2Cc2ccccc2)c1OC [CBK299811] | 91.4%

Same assay, conditions: human, hela cells, % viability, bulk resorufin, single well

Row | SMILES | viability at 28.5 h, 10 µM
63 | O=C1NC(=S)N(Cc2ccco2)C(=O)/C1=C\c1cn(CCOc2ccc(F)cc2)c2ccccc12 [CBK265573] | 80.9%
64 | COc1ccc(CCNCc2ccc([N+](=O)[O-])cc2)cc1OC [CBK262217] | 115%

Reference: article PMC12040169 (PLOS Biology, 2025)
